{
  "source": "patent US20240318141A1",
  "about": "“MATURATION AGENT” (Orizuru Therapeutics, Inc., priority 2021, published 2024)",
  "key": {"[1]": {"system": "immunodeficient NOD/SCID mouse with streptozotocin-induced insulin-deficient diabetes mellitus", "assay": "In vivo transplantation of insulin-producing cell population prepared by addition of docetaxel: plasma human C-peptide and graft weight (Example 5)", "method": "An immunodeficient NOD/SCID mouse was prepared by inducing insulin-deficient diabetes mellitus with streptozotocin. […] After transplantation, a human C-peptide concentration in plasma was measured over time. The graft was excised 6 months after transplantation, and its weight was measured."}, "[2]": {"system": "non-endocrine cells in graft (Outgrowth, Cyst)", "assay": "Evaluation of non-endocrine cells in graft and protein expression by HE and immunohistological staining (Example 5)", "type": "in vivo, mouse", "conditions": "graft 6 months after transplantation", "method": "The excised graft was fixed and dehydrated, and a paraffin section was then prepared and subjected to HE staining and immunohistological staining for the expression of the proteins of interest (insulin, glucagon, Ki67, human nucleus, PDX1, and CK19). The presence or absence of non-endocrine cells was confirmed on the basis of the morphology and staining image thereof. The number and frequency of non-endocrine cells appearing in the graft were counted as total numbers from four tests conducted with cells derived from a plurality of batches treated in the same manner.\nOutgrowth shown in Table 9 refers to a population of human nucleus-positive, PDX1-negative, and Ki67-positive non-endocrine cells, and its presence was determined from morphology by HE staining as well as by immunohistological staining. Cyst shown in Table 9 refers to human nucleus-positive, PDX1-positive, and CK19-positive non-endocrine duct cells, and its presence was determined from a duct form by HE staining as well as by immunohistological staining."}},
  "data": [
    {"molecule": "CC(=O)O[C@@]12CO[C@@H]1C[C@H](O)[C@@]1(C)C(=O)[C@H](O)C3=C(C)[C@@H](OC(=O)[C@H](O)[C@@H](NC(=O)OC(C)(C)C)c4ccccc4)C[C@@](O)([C@@H](OC(=O)c4ccccc4)[C@H]21)C3(C)C", "note": "[Docetaxel, (−)-(1S,2S,3R,4S,5R,7S,8S,10R,13S)-4-Acetoxy-2-benzoyloxy-5,20-epoxy-1,7,10-trihydroxy-9-oxotax-11-en-13-yl (2R,3S)-3-tert-butoxycarbonylamido-2-hydroxy-3-phenylpropionate]", "values": [
      {"measurement": "graft weight", "setting": "[1]; graft excised at 6 months after transplantation", "value": "low tendency"},
      {"measurement": "persistence of human C-peptide secretion after transplantation", "setting": "[1]; subcutaneous transplantation, follow-up", "value": "continuously confirmed up to 6 months after transplantation"},
      {"measurement": "human C-peptide secretion in plasma", "setting": "[1]; subcutaneously transplanted cell population prepared by addition of docetaxel vs prepared without docetaxel", "value": "at the same level"},
      {"measurement": "Ki67-positive cells in graft (immunohistological staining)", "setting": "[2]", "value": "slightly scattered"},
      {"measurement": "insulin-positive and glucagon-positive cells in graft (immunohistological staining)", "setting": "[2]", "value": "many insulin-positive and glucagon-positive cells were confirmed throughout the whole graft"},
      {"measurement": "Frequency of appearance (%), Cyst", "setting": "[2]; total of 4 tests, 21 animals", "value": 10, "unit": "%"},
      {"measurement": "Frequency of appearance (%), Outgrowth", "setting": "[2]; total of 4 tests, 21 animals", "value": 0, "unit": "%"},
      {"measurement": "The number of appearance, Cyst", "setting": "[2]; total of 4 tests, 21 animals", "value": 2},
      {"measurement": "The number of appearance, Outgrowth", "setting": "[2]; total of 4 tests, 21 animals", "value": 0}
    ]}
  ]
}
